The source of these data is patent US20250042916A1 (ACONCAGUA BIO, INC., priority 2023, published 2025).

pEC50: −log10 of the molar value.

The experiment deals with human calcitonin receptor (CTR) and RAMP3 (AMY3) in COS-7 cells (Homo sapiens, UniProt O60896+P30988). Briefly: Amylin Receptor cAMP Assay I. In kind it is cell-based. The settings on record: values marked *: Amylin Receptor cAMP Assay I; COS-7/AMY3 cells; read-out: Amylin Receptor cAMP Stimulation Activity: EC50. In outline: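 COS-7 cells stably co-expressing human CTR and RAMP3 (AMY3) were stimulated with serially diluted compounds (4-fold) in DPBS with 0.5 mM IBMX and 0.1% BSA for 30 min at 37 °C, 1000 cells/well. cAMP accumulation was measured by HTRF (cAMP-d2/anti-cAMP cryptate, 1 h RT) read at 665/615 nm.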
Chain of human calcitonin receptor (CTR) and RAMP3 (AMY3) in COS-7 cells (P30988 25-474): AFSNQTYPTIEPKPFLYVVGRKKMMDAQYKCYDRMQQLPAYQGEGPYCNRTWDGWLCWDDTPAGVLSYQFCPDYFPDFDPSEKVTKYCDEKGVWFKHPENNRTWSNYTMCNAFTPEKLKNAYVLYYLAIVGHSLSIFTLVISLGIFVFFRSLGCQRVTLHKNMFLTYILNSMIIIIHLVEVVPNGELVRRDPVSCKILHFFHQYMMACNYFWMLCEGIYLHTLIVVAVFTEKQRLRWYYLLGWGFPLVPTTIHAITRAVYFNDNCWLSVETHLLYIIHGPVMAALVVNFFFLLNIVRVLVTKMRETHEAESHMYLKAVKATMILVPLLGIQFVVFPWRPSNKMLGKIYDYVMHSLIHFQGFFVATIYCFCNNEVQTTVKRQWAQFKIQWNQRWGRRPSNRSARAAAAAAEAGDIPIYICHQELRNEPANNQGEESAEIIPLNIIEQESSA
Chain of human calcitonin receptor (CTR) and RAMP3 (AMY3) in COS-7 cells (O60896 24-148): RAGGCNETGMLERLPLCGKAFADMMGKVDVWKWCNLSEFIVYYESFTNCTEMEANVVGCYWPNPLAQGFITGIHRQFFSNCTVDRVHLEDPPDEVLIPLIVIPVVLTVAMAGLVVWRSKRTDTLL
As a reminder, the pEC50 is the EC50 on a negative log10 scale, so that one unit is a factor of ten. In the case of `Cc1nnc(-c2c(CCc3ccc(F)cc3)nc(CC(C)C)c(C(N)=O)c2N2CCC(C(=O)NCc3ccc(F)c(F)c3)C2)o1` (stereo not shown) [Compound 170, 4-(3-((3,4-difluorobenzyl)carbamoyl)pyrrolidin-1-yl)-6-(4-fluorophenethyl)-2-isobutyl-5-(5-methyl-1,3,4-oxadiazol-2-yl)nicotinamide], the negative logarithm of the EC50 (pEC50) is 5.43. Then `Cc1ccc(-c2c(CCc3ccc(F)cc3)nc(CC(C)C)c(C(N)=O)c2-c2ccc(C(=O)NCc3ccc(F)c(F)c3)s2)cn1` [Compound 171, 4-(5-((3,4-difluorobenzyl)carbamoyl)thiophen-2-yl)-2-(4-fluorophenethyl)-6-isobutyl-6′-methyl-[3, 3′-bipyridine]-5-carboxamide], with 7.22; and `Cc1nnc(-c2c(CC3(c4ccc(F)cc4)CC3)nc(CC(C)C)c(C(N)=O)c2-c2ccc(C(=O)NCc3ccc(F)c(F)c3)s2)o1` [Compound 172, 4-(5-((3,4-difluorobenzyl)carbamoyl)thiophen-2-yl)-6-((1-(4-fluorophenyl)cyclopropyl)methyl)-2-isobutyl-5-(5-methyl-1,3,4-oxadiazol-2-yl)nicotinamide], with 5.94; and `Cc1nnc(-c2c(COc3ccc(F)cc3)nc(CC(C)C)c(C(N)=O)c2-c2cc3ccnc(N[C@@H]4CCc5ncccc54)c3s2)o1` [Compound 173, (R)-4-(7-((6,7-dihydro-5H-cyclopenta[b]pyridin-5-yl)amino)thieno[2,3-c]pyridin-2-yl)-6-((4-fluorophenoxy)methyl)-2-isobutyl-5-(5-methyl-1,3,4-oxadiazol-2-yl)nicotinamide], with 6.39.

As for `Cc1nnc(-c2c(COc3ccc(F)cc3)nc(CC(C)C)c(C(N)=O)c2-c2cc3ccnc(N[C@@H]4CCc5ccccc54)c3s2)o1` [Compound 175, (R)-4-(7-((2,3-dihydro-1H-inden-1-yl)amino)thieno[2,3-c]pyridin-2-yl)-6-((4-fluorophenoxy)methyl)-2-isobutyl-5-(5-methyl-1,3,4-oxadiazol-2-yl)nicotinamide], the negative logarithm of the EC50 (pEC50) is 6.68. For the compound `Cc1nnc(-c2c(CC(C)(C)c3ccc(F)cc3)nc(CC(C)C)c(C(N)=O)c2-c2ccc(C(=O)NCc3ccc(F)c(F)c3)s2)o1` [Compound 176, 4-(5-((3,4-difluorobenzyl)carbamoyl)thiophen-2-yl)-6-(2-(4-fluorophenyl)-2-methylpropyl)-2-isobutyl-5-(5-methyl-1,3,4-oxadiazol-2-yl)nicotinamide], the negative logarithm of the EC50 (pEC50) was 5.89. For `Cc1nnc(-c2c(CCc3ccc(F)cc3)nc(CC(C)C)c(C(N)=O)c2-c2ccc3c(ccn3CC3CCc4ccccc43)c2)o1` (stereo not shown) [Compound 177, 4-(1-((2,3-dihydro-1H-inden-1-yl)methyl)-1H-indol-5-yl)-6-(4-fluorophenethyl)-2-isobutyl-5-(5-methyl-1,3,4-oxadiazol-2-yl)nicotinamide] the value was 6.40; for `Cc1nnc(-c2c(C3CC3c3ccc(F)cc3)nc(CC(C)C)c(C(N)=O)c2-c2ccc(C(=O)NCc3ccc(F)c(F)c3)s2)o1` (stereo not shown) [Compound 178, 4-(5-((3,4-difluorobenzyl)carbamoyl)thiophen-2-yl)-6-(2-(4-fluorophenyl)cyclopropyl)-2-isobutyl-5-(5-methyl-1,3,4-oxadiazol-2-yl)nicotinamide], 6.95. Then `Cc1nnc(-c2c(CCN3CCCCC3)nc(CC(C)C)c(C(N)=O)c2-c2ccc(C(=O)NCc3ccc(F)c(F)c3)s2)o1` [Compound 179, 4-(5-((3,4-difluorobenzyl)carbamoyl)thiophen-2-yl)-2-isobutyl-5-(5-methyl-1,3,4-oxadiazol-2-yl)-6-(2-(piperidin-1-yl)ethyl)nicotinamide], with under 6.00. For `Cc1nnc(-c2c(CC3COc4ccccc4O3)nc(CC(C)C)c(C(N)=O)c2-c2ccc(C(=O)NCc3ccc(F)c(F)c3)s2)o1` (stereo not shown) [Compound 180, 4-(5-((3,4-difluorobenzyl)carbamoyl)thiophen-2-yl)-6-((2,3-dihydrobenzo[b][1,4]dioxin-2-yl)methyl)-2-isobutyl-5-(5-methyl-1,3,4-oxadiazol-2-yl)nicotinamide] the value was 6.86; for `Cc1nnc(-c2c(CN3Cc4ccccc4C3=O)nc(CC(C)C)c(C(N)=O)c2-c2ccc(C(=O)NCc3ccc(F)c(F)c3)s2)o1` [Compound 181], 5.03. Take `Cc1nnc(-c2c(CCC(=O)N3CCCC3)nc(CC(C)C)c(C(N)=O)c2-c2ccc(C(=O)NCc3ccc(F)c(F)c3)s2)o1` [Compound 182]: the pEC50 was 4.63.

Turning to `Cc1ccn(CCc2nc(CC(C)C)c(C(N)=O)c(-c3ccc(C(=O)NCc4ccc(F)c(F)c4)s3)c2-c2nnc(C)o2)n1` [Compound 183, 4-(5-((3,4-difluorobenzyl)carbamoyl)thiophen-2-yl)-2-isobutyl-5-(5-methyl-1,3,4-oxadiazol-2-yl)-6-(2-(3-methyl-1H-pyrazol-1-yl)ethyl)nicotinamide], the negative logarithm of the EC50 (pEC50) was 5.72. For `Cc1nnc(-c2c(CCc3cnn(C)c3)nc(CC(C)C)c(C(N)=O)c2-c2ccc(C(=O)NCc3ccc(F)c(F)c3)s2)o1` [Compound 184, 4-(5-((3,4-difluorobenzyl)carbamoyl)thiophen-2-yl)-2-isobutyl-5-(5-methyl-1,3,4-oxadiazol-2-yl)-6-(2-(1-methyl-1H-pyrazol-4-yl)ethyl)nicotinamide] the value was 5.97. For `Cc1nnc(-c2c(CC(O)c3ccc(F)cc3)nc(CC(C)C)c(C(N)=O)c2-c2ccc(C(=O)N[C@@H]3CCc4ccccc43)s2)o1` (stereo partly drawn) [Compound 185, 4-(5-(((R)-2,3-dihydro-1H-inden-1-yl)carbamoyl)thiophen-2-yl)-6-(2-(4-fluorophenyl)-2-hydroxyethyl)-2-isobutyl-5-(5-methyl-1,3,4-oxadiazol-2-yl)nicotinamide] the value was 6.29; for `COC(Cc1nc(CC(C)C)c(C(N)=O)c(-c2ccc(C(=O)NCc3ccc(F)c(F)c3)s2)c1-c1nnc(C)o1)c1ccc(F)cc1` (stereo not shown) [Compound 186, 4-(5-((3,4-difluorobenzyl)carbamoyl)thiophen-2-yl)-6-(2-(4-fluorophenyl)-2-methoxyethyl)-2-isobutyl-5-(5-methyl-1,3,4-oxadiazol-2-yl)nicotinamide], 6.91. With `Cc1nnc(-c2c(CC(F)c3ccc(F)cc3)nc(CC(C)C)c(C(N)=O)c2-c2ccc(C(=O)N[C@@H]3CCc4ccccc43)s2)o1` (stereo partly drawn) [Compound 187, 4-(5-(((R)-2,3-dihydro-1H-inden-1-yl)carbamoyl)thiophen-2-yl)-6-(2-fluoro-2-(4-fluorophenyl)ethyl)-2-isobutyl-5-(5-methyl-1,3,4-oxadiazol-2-yl)nicotinamide], the pEC50 was 7.00.

Turning to `Cc1nnc(-c2c(CCC(F)F)nc(CC(C)C)c(C(N)=O)c2-c2ccc(C(=O)NCc3ccc(F)c(F)c3)s2)o1` [Compound 189, 4-(5-((3,4-difluorobenzyl)carbamoyl)thiophen-2-yl)-6-(3,3-difluoropropyl)-2-isobutyl-5-(5-methyl-1,3,4-oxadiazol-2-yl)nicotinamide], the negative-log EC50 (pEC50) was under 6.00. For `Cc1nnc(-c2c(CC(C)c3ccc(F)cc3)nc(CC(C)C)c(C(N)=O)c2-c2ccc(C(=O)N[C@@H]3CCc4ncccc43)s2)o1` (stereo partly drawn) [Compound 191, 4-(5-(((R)-6,7-dihydro-5H-cyclopenta[b]pyridin-5-yl)carbamoyl)thiophen-2-yl)-6-(2-(4-fluorophenyl)propyl)-2-isobutyl-5-(5-methyl-1,3,4-oxadiazol-2-yl)nicotinamide] the value was 5.97; for `Cc1nnc(-c2c(CC3CC3(F)F)nc(CC(C)C)c(C(N)=O)c2-c2ccc(C(=O)NCc3ccc(F)c(F)c3)s2)o1` (stereo not shown) [Compound 192, 4-(5-((3,4-difluorobenzyl)carbamoyl)thiophen-2-yl)-6-((2,2-difluorocyclopropyl)methyl)-2-isobutyl-5-(5-methyl-1,3,4-oxadiazol-2-yl)nicotinamide], under 6.00.

Consider `Cc1nnc(-c2c(CC3CC(F)(F)C3)nc(CC(C)C)c(C(N)=O)c2-c2ccc(C(=O)NCc3ccc(F)c(F)c3)s2)o1` [Compound 193, 4-(5-((3,4-difluorobenzyl)carbamoyl)thiophen-2-yl)-6-((3,3-difluorocyclobutyl)methyl)-2-isobutyl-5-(5-methyl-1,3,4-oxadiazol-2-yl)nicotinamide], for which the negative-log EC50 (pEC50) is 5.45. For `Cc1nnc(-c2c(C34CC(C(F)(F)F)(C3)C4)nc(CC(C)C)c(C(N)=O)c2-c2ccc(C(=O)NCc3ccc(F)c(F)c3)s2)o1` [Compound 194, 4-(5-((3,4-difluorobenzyl)carbamoyl)thiophen-2-yl)-2-isobutyl-5-(5-methyl-1,3,4-oxadiazol-2-yl)-6-(3-(trifluoromethyl)bicyclo[1.1.1]pentan-1-yl)nicotinamide] the value was 5.47; for `Cc1ccc(CCc2nc(CC(C)C)c(C(N)=O)c(-c3ccc(C(=O)N[C@@H]4CCc5ncccc54)s3)c2-c2nnc(C)o2)nc1` [Compound 195, (R)-4-(5-((6,7-dihydro-5H-cyclopenta[b]pyridin-5-yl)carbamoyl)thiophen-2-yl)-2-isobutyl-5-(5-methyl-1,3,4-oxadiazol-2-yl)-6-(2-(5-methylpyridin-2-yl)ethyl)nicotinamide], 4.40. In the case of `Cc1nnc(-c2c(CCC3CCOCC3)nc(CC(C)C)c(C(N)=O)c2-c2cc3ccnc(N[C@@H]4CCc5ncccc54)c3s2)o1` [Compound 196, (R)-4-(7-((6,7-dihydro-5H-cyclopenta[b]pyridin-5-yl)amino)thieno[2,3-c]pyridin-2-yl)-2-isobutyl-5-(5-methyl-1,3,4-oxadiazol-2-yl)-6-(2-(tetrahydro-2H-pyran-4-yl)ethyl)nicotinamide], the negative logarithm of the EC50 (pEC50) is 6.55. Then `COc1cccc2c1CC[C@H]2Nc1nccc2cc(-c3c(C(N)=O)c(CC(C)C)nc(CCC4CCOCC4)c3-c3ncc(C)o3)sc12` [Compound 198, (R)-2-isobutyl-4-(7-((4-methoxy-2,3-dihydro-1H-inden-1-yl)amino)thieno[2,3-c]pyridin-2-yl)-5-(5-methyloxazol-2-yl)-6-(2-(tetrahydro-2H-pyran-4-yl)ethyl)nicotinamide], with 6.64.
